This note sets out measurements from patent US7317037B2, “Progesterone receptor modulators comprising pyrrole-oxindole derivatives and uses thereof” (Wyeth, priority 2004, dated 2008).

The target in series [1] is T1, progesterone receptor (PR) (Homo sapiens, UniProt P06401).
T1 construct: Effects of Progestins and Antiprogestins on Alkaline Phosphatase Activity in T47D Cells; endogenous in cells; host or cells: T47D cells
T1 sequence (P06401 1-933): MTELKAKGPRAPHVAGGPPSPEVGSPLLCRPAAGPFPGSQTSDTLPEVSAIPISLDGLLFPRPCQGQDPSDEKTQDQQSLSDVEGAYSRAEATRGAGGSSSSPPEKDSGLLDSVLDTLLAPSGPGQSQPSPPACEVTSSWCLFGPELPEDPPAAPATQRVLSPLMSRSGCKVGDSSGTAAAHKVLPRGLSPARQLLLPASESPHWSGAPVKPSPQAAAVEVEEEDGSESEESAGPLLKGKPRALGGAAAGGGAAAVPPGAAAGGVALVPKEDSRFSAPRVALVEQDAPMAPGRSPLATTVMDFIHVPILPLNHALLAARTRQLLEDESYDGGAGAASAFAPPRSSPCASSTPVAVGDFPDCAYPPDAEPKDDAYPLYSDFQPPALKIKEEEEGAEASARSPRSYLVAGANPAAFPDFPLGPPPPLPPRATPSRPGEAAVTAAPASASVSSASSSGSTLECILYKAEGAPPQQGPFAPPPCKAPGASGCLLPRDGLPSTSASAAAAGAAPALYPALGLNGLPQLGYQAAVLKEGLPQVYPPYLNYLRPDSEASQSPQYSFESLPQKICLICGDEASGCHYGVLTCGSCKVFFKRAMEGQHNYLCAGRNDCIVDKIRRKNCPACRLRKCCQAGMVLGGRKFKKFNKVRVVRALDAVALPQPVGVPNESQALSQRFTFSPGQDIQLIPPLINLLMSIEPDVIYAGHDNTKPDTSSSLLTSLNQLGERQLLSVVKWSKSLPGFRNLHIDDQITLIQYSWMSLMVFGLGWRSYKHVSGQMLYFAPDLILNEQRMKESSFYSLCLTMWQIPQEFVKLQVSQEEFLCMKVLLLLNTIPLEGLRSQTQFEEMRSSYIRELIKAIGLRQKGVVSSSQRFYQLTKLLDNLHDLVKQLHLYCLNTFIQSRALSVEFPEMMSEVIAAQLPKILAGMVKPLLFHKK
Briefly: T47D cell alkaline phosphatase assay (antagonist mode). Format: cell-based. The method, then:
A. Effects of Progestins and Antiprogestins on Alkaline Phosphatase Activity in T47D Cells (T47D Alkaline Phosphatase Assay)
Culture medium: DMEM:F12 (1:1) (GIBCO, BRL) supplemented with 5% (v/v) charcoal stripped fetal bovine serum (not heat-inactivated), 100 U/mL penicillin, 100 μg/mL streptomycin, and 2 mM GlutaMax (GIBCO, BRL).
Alkaline phosphatase assay buffer: I. 0.1M Tris-HCl, pH 9.8, containing 0.2% Triton X-100, 0.1M Tris-HCl, pH 9.8, containing 4 mM p-nitrophenyl phosphate (Sigma).
2. Cell Culture and Treatment:
Frozen T47D cells are thawed in a 37° C. water bath and diluted to 280,000 cells/mL in culture medium. To each well in a 96-well plate (Falcon, Becton Dickinson Labware), 180 μl of diluted cell suspension is added. Twenty μl of reference or test compounds diluted in the culture medium is then added to each well. When testing for progestin antagonist activity, reference antiprogestins or test compounds are added in the presence of 1 nM progesterone. The cells are incubated at 37° C. in a 5% CO2 humidified atmosphere for 24 hours. For high throughput screening, one concentration of each compound will be tested at 0.3 μg/mL. Based on an average molecular weight of 300 g/mol for the compounds in the library, the concentration is approximately 1 μM. Subsequently, active compounds will be tested in dose response assays to determine EC50 and IC50.
3. Alkaline Phosphatase Enzyme Assay:
At the end of treatment, the medium is removed from the plate. Fifty μl of assay buffer I is added to each well. The plates are shaken in a titer plate shaker for 15 min. Then 150 μl of assay buffer II is added to each well. Optical density measurements are taken at 5 min intervals for 30 min at a test wavelength of 405 nm.
4. Analysis of Dose-Response Data.
For reference and test compounds, a dose response curve is generated for dose vs. the rate of enzyme reaction (slope). Square root-transformed data are used for analysis of variance and nonlinear dose response curve fitting for both agonist and antagonist modes. Huber weighting is used to down-weight the effects of outliers. EC50 or IC50 values are calculated from the retransformed values. JMP software (SAS Institute, Inc.) is used for both one-way analysis of variance and non-4 linear dose response analysis in both single dose and dose response studies.
Progesterone and trimegestone are reference progestins and RU486 is the reference antiprogestin. All reference compounds are run in full dose response curves and the EC50 and IC50 values are calculated.

Series [2] in a line: Cynomolgus monkey intravenous pharmacokinetics. The following applies: in vivo, cynomolgus monkeys, 0.25 mg/kg i.v. The text has this:
Therefore from the preceding data it is clear that the R6=fluorine group present in 5-(7-fluoro-3,3-dimethyl-2-oxo-2,3-dihydro-1H-indol-5-yl)-1-methyl-1H-pyrrole-2-carbonitrile dramatically improves the pharmacokinetic performance of the molecule. This improved pharmacokinetic performance translates in the cynomolgus menses induction assay to a dramatic improvement in activity.

The structures appear in SMILES notation. Where two headings read alike, the source gives them in different places.

For the compound `Cn1c(C#N)ccc1-c1cc(F)c2c(c1)C(C)(C)C(=O)N2` [5-(7-fluoro-3,3-dimethyl-2-oxo-2,3-dihydro-1H-indol-5-yl)-1-methyl-1H-pyrrole-2-carbonitrile], the IC50 (usually the point on the concentration scale where inhibition reaches its midpoint) in series [1] (PR antagonist, comparative example text, read-out: IC50 in the T47D alkaline phosphatase assay) is 3.4 nM; in series [1] (T47D cells, antagonist mode in the presence of 1 nM progesterone, 24 hours, read-out: IC50 (nM), T47D Cell Alkaline Phosphatase Assay), 5.4 nM. In addition, the AUC(0-inf) in series [2] (read-out: exposure (AUC0-∞)) worked out at 578 ng·h/mL. For the same compound, the half-life in series [2] (read-out: mean half life (t1/2) (converted)) was 8.8 h.
